According to patent US20110126300A1, “High Through-Put Method of Screening Compounds for Pharmacological Activity” (priority 2005, published 2011):

How the values were obtained:
[1] = tested on: wild type zebrafish larvae; assay: Wild type larvae exposed to compound, PED6 imaging of intestine contour; format: in vivo, zebrafish (Danio rerio); conditions: 6 dpf wild type larvae, 2 hour exposure to PED6; FIG. 2B
Method: FIGS. 2A-2D photographically show lateral fluorescent images of 6 dpf zebrafish larvae following 2 hour exposure to fluorescent lipid PED6.
For rescue experiments, 1-cell stage embryos derived from pair-wise mating of heterozygous mlt carriers were injected with either the MT-mmpa, morpholino alone or in combination with the β4 integrin morpholino. Subsequently, all embryos were injected with either 0.375 or 0.1875 pg of tissue inhibitor of metalloproteinases 2 (TIMP2 inhibitor) (PF021; Oncogene Research Products, now Calbiochem, San Diego, Calif.) at 48 hpf. Alternatively, 2.5 dpf or 3 dpf larvae were incubated in the TGF-β Type I receptor inhibitor SB 431542, 100 μM in embryo media. Morpholino sequences were as identified in Wallace et al., supra, 2005b for smooth muscle myosin heavy chain, β4 integrin, and MT-mmpa.

[2] = tested on: meltdown (mlt) mutant larvae; assay: Rescue of the mlt mutant phenotype by compound exposure, read out with fluorescent lipid PED6 in the posterior intestine; format: in vivo, zebrafish (Danio rerio)
Method: For testing, the embryos were then cultured in the presence of the test compound(s) overnight or up to 96 hrs at 28.5° C., for example, in 96-well plates. Mutant larvae and mutants reared in the presence of small molecule compounds may be bathed in the fluorescent lipid PED6 or fluorescent microspheres, which outline the digestive tract lumen and can be seen by visual inspection or by a commercially-available fluorescent plate scanner, typically by 96-120 hours post fertilization (hpf). Although signals that regulate regional epithelial differentiation and renewal are poorly understood, in meltdown (mlt), the posterior gut is disorganized and bears an expanded mesenchyme (Briggs, Am. J. Physiol. Regulatory Integrative Comp. Physiol. 282: R3-9 (2002)). Neither fluorescent marker enters the posterior intestine of mlt mutants because the intestinal lumen is obstructed by the massive cysts that form in all mlt mutant larvae.
No effect: A test compound was considered to have no effect if none of the mlt mutant larvae show fluorescent lipid in the posterior intestine.
When no mutants were observed, one possibility was that the test compound produced a complete rescue of the mutant phenotype. The other possibility was that there were never any mutants present in the well. When embryos derived from matings of heterozygous mlt/+ fish are used for these assays, then with 8-10 embryos per test compound, the latter possibility may be calculated to occur with a frequency of 0.01%.
Partial rescue: Partial rescue was considered when mutants or the mutant phenotype was present, but the fluorescent markers were present in the posterior intestine.
In the present assays, mosaic zebrafish were generated in which homozygous mlt/mlt cells have replaced the native germline of wild type fish. 100% of the offspring derived from pair wise matings of such modified zebrafish are homozygous for the mlt mutation. Thus, all of the larvae placed in each well of the 96-well plate are mlt mutants, greatly enhancing the efficiency of each assay. […]

[3] = tested on: wild type zebrafish larvae; assay: PTZ-induced seizure assay in larvae; format: in vivo; conditions: PTZ 15 uM, 4 day post-fertilization wild type larvae
Method: To assay small molecule compounds with anti-seizure activity, 4 day post-fertilization wild type zebrafish were placed in 96-well plates (5 larvae per well) and incubated in the test compounds (20 uM) as above, for either 2 or 12 hrs. Subsequently, the larvae were administered pentylenetetrazole (PTZ; 15 uM) and observed for seizure activity (i.e., a change in phenotype). […] This activity persists for approximately 20 minutes and then culminates in a tonic convulsion that abolishes movement and normal posture. Prior to or after onset of the seizure activity, the small molecule test compound was administered to the larvae and the response of the fish assessed visually or by digital recording.
Scoring was based upon whether the test compound was able to inhibit or modify the seizure activity of the larvae.

| Compound | intestine contour in wild type larvae [1] | posterior intestinal PED6 fluorescence and intestine contour in mlt larvae ([2]; 6 dpf mlt larvae, 2 hour exposure to PED6, FIG. 2D) | rescue of the mlt mutant phenotype (fluorescent lipid in posterior intestine) ([2]; compound added ~60 hpf, PED6 at 96 hpf, imaged at 120 hpf) | intestinal cysts versus untreated mlt larvae ([2]; mlt larvae scored at 5 dpf, treated at 2.5 dpf or 3 dpf, 100 μM in embryo media) | duration of seizure activity before tonic convulsion [3] |
| --- | --- | --- | --- | --- | --- |
| NC(=O)c1ccc(-c2nc(-c3ccc4c(c3)OCO4)c(-c3ccccn3)[nH]2)cc1 [SB431542] | normal intestine contour | posterior intestinal fluorescence and the contour is normal | rescuing the mutant phenotype | far fewer cysts than untreated mlt larvae |  |
| C1CCc2nnnn2CC1 [PTZ, pentylenetetrazole] |  |  |  |  | approximately 20 minutes |
